Ends that are not written are not given here.
Tests used:
[1] = system: FGFR; cerebellar granule neurons (CGNs); assay: Neurite outgrowth in CGNs with FGFR-inhibitor SU5402; type: cell-based, Wistar rat; conditions: p < 0.01
Protocol: (§1) Cerebellar granule neurons (CGNs) were prepared from 7-day-old Wistar rat pups (Charles River Laboratories, Sulzfeld, Germany) as previously described ([Schousboe et al., 1989]). Briefly, pups were decapitated, and the cerebellum was removed and cleared from blood vessels and meninges in ice-cold modified Krebs-Ringer buffer. The cerebellum was dissociated by chopping and trypsinization. Cells were washed in Krebs-Ringer buffer containing DNAse I (Sigma, St. Louis, MO, United States) and soybean trypsin inhibitor (Sigma) to stop trypsinization, and the remaining tissue pieces were pelleted by centrifugation. Cells were then washed in Krebs-Ringer buffer containing Ca^2+ and Mg^2+ and re-suspended in appropriate Neurobasal^TM medium (Invitrogen, Taastrup, Denmark) with supplements depending on the experiment.
Cerebellar granule neurons CGNs were re-suspended in Neurobasal^TM medium supplemented with 2% (v/v) B27, 0.5% (v/v) glutamax, 100 U/ml penicillin, 100 μg/ml streptomycin, 0.4% (w/v) BSA, and 20 mM HEPES and were seeded in 8-well LabTek Permanox chamber slides (Nunc) at a density of 1 × 10^4 cells/cm^2. Various concentrations of ARTN, artefin, scrambled artefin, or reversed artefin were added to neurons immediately after seeding. For the RET inhibition assay, the inhibitory goat anti-mouse RET antibody (4.1 μg/ml; R&D systems, Abingdon, United Kingdom) or control goat IgG (4.1 μg/ml; Santa Cruz Biotechnology, Dallas, TX, United States) were added to neurons 1 h before stimulation with ARTN (0.042 nM) […]. For the competition assay between growth factor and mimetic peptide, a combination of ARTN (2.1 nM) and artefin (4.2 μM) was added to the cells immediately after seeding. […]
To estimate neurite outgrowth, neurons were fixated 24 h after stimulation and stained with rabbit anti-growth-associated-protein-43 (GAP-43) antibody (Chemicon International, Inc., Temecula, CA, United States) or anti-GFP antibody (for transfection experiment) overnight at 4°C followed by incubation with secondary Alexa-conjugated goat anti-rabbit antibodies (Invitrogen, Taastrup, Denmark). In case of experiments with plasmid transfection, the transfection efficiency was ca. 20% of total cells and the neurite outgrowth was evaluated only in GFP-positive, i.e., transfected, cells. […]
Computer-assisted fluorescent microscopy was performed using a Nikon Diaphot 300 inverted microscope (Nikon) equipped with a Nikon Plan 20× objective and coupled to a video camera (Grundig Electronics, Germany). For each condition in each experiment, including the experiment with transfections, images of approximately 200 cells were recorded in systematic series of fields of view, and neurite outgrowth was quantified using a stereological approach as previously described ([Rønn et al., 2000]). […]

[2] = system: NCAM; cerebellar granule neurons (CGNs); assay: Neurite outgrowth in CGNs with NCAM knock down (NCAM shRNA); type: cell-based, Wistar rat; conditions: 24 h, P2-d 8 μg/ml, ARTN 0.21 nM, artefin 1.4 μM
Protocol: as §1
(§2) To evaluate the involvement of NCAM and RET in neurite outgrowth induced by either ARTN or artefin, CGNs (3 × 10^6 per transfection) were transfected with 3 μg DNA using a Nucleofector^TM 2b device and a Rat Neuron Nucleofector Kit (Amaxa, Inc., Gaithersburg, MD, United States). A kinase-deleted dominant negative RET insert was obtained by direct PCR using a commercially available clone (IRAKp961P02132Q; RZPD, Berlin, Germany) encoding full-length mouse RET coding sequence 586–3807 nt. as template. The upper primer […] contained a NheI restriction site and Kozak sequence, and the lower primer […] encoded Streptag II and NotI restriction sites. The dominant negative RET insert and the pcDNA5/FRT expression vector containing the Flp-In system were cut with NheI and NotI restriction enzymes, purified, ligated using the Rapid DNA Ligation Kit (Roche, Basel, Switzerland), and transfected into One Shot TOP10 E. coli (Invitrogen, Taastrup, Denmark). E. coli colonies containing the dominant negative RET insert were identified by PCR, and one insert-positive colony was used for plasmid purification. The identity of the purified plasmid was verified by restriction cutting and sequencing of the insert. For NCAM knock down, we used a pENTR vector containing the shRNA expression cassette for NCAM knock down ([Hansen et al., 2007]). An empty vector was used as a control. To identify transfected neurons, all transfections were performed as co-transfections with 0.5 μg pEGFP-N1, an expression vector encoding the enhanced variant of green fluorescent protein (GFP; Clontech, Palo Alto, CA, United States). Transfected CGNs were seeded in Neurobasal^TM-A medium supplemented with 2% (v/v) B27, 5% (v/v) FCS, and 2 mM Glutamax at a density of 1 × 10^5 cells/cm^2.
(§3) To estimate neurite outgrowth, neurons were fixated 24 h after stimulation and stained with rabbit anti-growth-associated-protein-43 (GAP-43) antibody (Chemicon International, Inc., Temecula, CA, United States) or anti-GFP antibody (for transfection experiment) overnight at 4°C followed by incubation with secondary Alexa-conjugated goat anti-rabbit antibodies (Invitrogen, Taastrup, Denmark). In case of experiments with plasmid transfection, the transfection efficiency was ca. 20% of total cells and the neurite outgrowth was evaluated only in GFP-positive, i.e., transfected, cells. For representative pictures, cells were additionally co-stained with Hoechst 33258.
(§4) Computer-assisted fluorescent microscopy was performed using a Nikon Diaphot 300 inverted microscope (Nikon) equipped with a Nikon Plan 20× objective and coupled to a video camera (Grundig Electronics, Germany). For each condition in each experiment, including the experiment with transfections, images of approximately 200 cells were recorded in systematic series of fields of view, and neurite outgrowth was quantified using a stereological approach as previously described ([Rønn et al., 2000]).
(§5) FIGURE 7 Neuritogenic effect of ARTN and artefin in (A) dominant negative RET or (B) knock down NCAM-expressing CGNs. […]

[3] = system: RET; cerebellar granule neurons (CGNs); assay: Neurite outgrowth in CGNs transfected with dominant negative RET (dnRET); type: cell-based, Wistar rat; conditions: 24 h, P2-d 8 μg/ml, ARTN 0.21 nM, artefin 1.4 μM
Protocol: as §1, §2, §3, §4, §5

[4] = system: cerebellar granule neurons (CGNs); assay: Survival assay of CGNs induced to undergo apoptosis by potassium withdrawal; type: cell-based, Wistar rat; conditions: 50 ng/ml, 48 h, 5 mM KCl; p < 0.0001; positive control
Protocol: as §1
Cerebellar granule neurons were re-suspended in Neurobasal^TM-A medium supplemented with 2% (v/v) B27 (Invitrogen, Taastrup, Denmark), 0.5% (v/v) glutamax, 100 U/ml penicillin, 100 μg/ml streptomycin, and 40 mM KCl, and seeded at a density of 1 × 10^5 cells/well in 8-well LabTek Permanox chamber slides (Nunc, Roskilde, Denmark) coated with poly-L-lysine (10 μg/ml). To avoid proliferation of non-neuronal cells, cytosine-β-D-arabinofuranoside (Sigma) was added to cells 24 h after plating. CGNs were allowed to differentiate for 7 days in vitro (DIV) in the presence of 40 mM KCl before being induced to undergo apoptosis by changing the medium to one containing only 5 mM KCl (apoptotic medium) ([D’Mello et al., 1993]). At 7 DIV, cells were washed and stimulated with serially diluted ARTN or artefin diluted in the apoptotic medium. Three different controls were included; (1) cells grown in medium containing 40 mM KCl served as a positive control; (2) cells grown in medium containing 5 mM KCl served as a negative control; (3) cells grown in medium containing 5 mM KCl supplemented with 50 ng/ml insulin growth factor-1 (IGF-1) (Life Technology), a known anti-apoptotic factor for CGNs in this setup ([Galli et al., 1995]). After 48 h following the induction of apoptosis, cells were fixated in 4% formaldehyde for 30 min, and nuclear morphology was visualized with Hoechst 33258 staining (Invitrogen, Taastrup, Denmark) (Figure 2A). Images of cells were obtained using a Nikon Diaphot 200 fluorescent microscope equipped with a Nikon Plan 40× objective (Nikon, Tokyo, Japan) and coupled to a black-white video camera. Images of at least 1000 cells/well in different fields of view were analyzed, and the percentage of viable neurons was estimated as the ratio of live cells (non-pyknotic cells with dispersed chromatin) to the total number of neurons.
FIGURE 2 Effect of ARTN and artefin on survival of cerebellar granular neurons (CGNs) induced to undergo apoptosis. CGNs were differentiated for 7 days in the presence of 40 mM KCl before apoptosis was induced by potassium withdrawal. (A) Nuclear morphology of CGNs after Hoechst 33258 staining. […] Scale bar: 100 μm. Cells were grown for 48 h in media, containing 40 mM KCl, apoptotic medium (5 mM KCl) or apoptotic medium supplemented with 50 ng/ml IGF-1 (positive control) (B), serially diluted ARTN (C), or artefin (D). Each experiment was performed in the presence of the three controls (40 mM KCl, 5 mM KCl, and 5 mM KCl plus IGF-1), and the survival effect of the growth factor and the peptide was compared to its own apoptotic control (5 mM KCl). Results from the five experiments are expressed as percentage of 40 mM KCl control set at 100% and presented as mean ± SEM. The anti-apoptotic effect of ARTN and artefin was tested using Student’s paired t-test, where ^∗p < 0.05; ^∗∗p < 0.01; ^∗∗∗p < 0.001; ^∗∗∗∗p < 0.0001.

[5] = system: cerebellar granule neurons (CGNs); assay: Neurite outgrowth assay in CGNs; type: cell-based, Wistar rat; conditions: 24 h; ARTN 0.013–2.1 nM; artefin 0.16–37.9 μM; one-way ANOVA
Protocol: as §1
Cerebellar granule neurons CGNs were re-suspended in Neurobasal^TM medium supplemented with 2% (v/v) B27, 0.5% (v/v) glutamax, 100 U/ml penicillin, 100 μg/ml streptomycin, 0.4% (w/v) BSA, and 20 mM HEPES and were seeded in 8-well LabTek Permanox chamber slides (Nunc) at a density of 1 × 10^4 cells/cm^2. Various concentrations of ARTN, artefin, scrambled artefin, or reversed artefin were added to neurons immediately after seeding. For the RET inhibition assay, the inhibitory goat anti-mouse RET antibody (4.1 μg/ml; R&D systems, Abingdon, United Kingdom) or control goat IgG (4.1 μg/ml; Santa Cruz Biotechnology, Dallas, TX, United States) were added to neurons 1 h before stimulation with ARTN (0.042 nM) […]. For the competition assay between growth factor and mimetic peptide, a combination of ARTN (2.1 nM) and artefin (4.2 μM) was added to the cells immediately after seeding. To inhibit Fibroblast growth factor receptor (FGFR) pharmacologically, inhibitor of FGFR, SU5402 (Sigma), was added to the growth medium in serial dilutions of 20, 40, and 80 μM immediately after plating of CGNs, followed by addition of either P2-d (8 μg/ml), ARTN (0.21 nM), or artefin (1.4 μM) 1 h after the plating.
as §3, §4
FIGURE 3 Neurite outgrowth induced by ARTN (A), artefin-dendrimer (B), and artefin-monomer (C) in CGNs. Cells were stimulated with ARTN (0.013, 0.042, 0.13, 0.42, and 2.1 nM) or artefin (0.16, 0.47, 1.4, 4.2, 12.6, and 37.9 μM) for 24 h. For the unstimulated control, the absolute length of neurites was 11.47 ± 1.5 μm. Results from four independent experiments are expressed as percentage of untreated control set to 100% and presented as mean ± SEM. The mean neurite outgrowth lengths were compared using one-way ANOVA for repeated measurements. The effect of individual concentrations of ARTN and artefin was compared to control using one-way ANOVA with Dunnett’s post-hoc test, ^∗p < 0.05; ^∗∗p < 0.01. […]

[6] = target: T1, recombinant rat NCAM Ig1–3 (rat, UniProt P13596 20-308); assay: SPR; Biacore 2000, 25°C, HBS-EP (10 mM HEPES pH 7.4, 150 mM NaCl, 3 mM EDTA, 0.005% P20); ARTN (~2300 RU) or artefin (~1600 RU) amine-coupled on a CM4 chip; serially diluted GFRα3/Fc or NCAM Ig1–3 injected at 20 μl/min; 1:1 interaction model or steady-state affinity analysis; conditions: both partners purified
T1 construct: neural cell adhesion molecule (NCAM), rat, Ig1–3 domains; also called NCAM Ig1–3 domain; source: recombinant, produced as described previously (Soroka et al., 2003)

[7] = target: T2, recombinant human GFRα3/Fc (human, UniProt O60609 32-374); assay: as above; conditions: both partners purified
T2 construct: GDNF family receptor alpha-3 (GFRα3), human; Commercial Fc chimera; also called GFL receptor α3; source: bought: R&D Systems
T2 sequence (looked up): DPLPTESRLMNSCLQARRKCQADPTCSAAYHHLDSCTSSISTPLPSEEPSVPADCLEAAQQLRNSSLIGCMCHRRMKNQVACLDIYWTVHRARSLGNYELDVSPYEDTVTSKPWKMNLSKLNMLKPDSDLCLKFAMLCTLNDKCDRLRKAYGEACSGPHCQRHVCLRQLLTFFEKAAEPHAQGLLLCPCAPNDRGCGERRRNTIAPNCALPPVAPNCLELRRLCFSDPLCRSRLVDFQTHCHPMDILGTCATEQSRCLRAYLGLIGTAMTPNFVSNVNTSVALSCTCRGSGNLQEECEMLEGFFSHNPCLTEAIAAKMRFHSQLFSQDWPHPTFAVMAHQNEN

T1 sequence (P13596 20-308): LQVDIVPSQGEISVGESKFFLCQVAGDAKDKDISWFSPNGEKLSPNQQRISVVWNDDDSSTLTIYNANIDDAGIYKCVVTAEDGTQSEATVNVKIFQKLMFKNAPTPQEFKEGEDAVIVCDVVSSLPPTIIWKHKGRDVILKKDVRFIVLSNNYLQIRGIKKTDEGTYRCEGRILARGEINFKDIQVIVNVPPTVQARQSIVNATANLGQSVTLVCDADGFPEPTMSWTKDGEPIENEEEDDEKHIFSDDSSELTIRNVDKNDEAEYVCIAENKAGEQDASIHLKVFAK

## GRILARGEINFK [P2-d, reference compound]
[1]; P2-d 8 μg/ml with 80 μM inhibitor
  neurite outgrowth with 80 μM FGFR inhibitor: significantly attenuated
[1]; P2-d 8 μg/ml
  neurite outgrowth in the absence of SU5402: promoted neurite outgrowth in the absence of SU5402 (p < 0.01)
[2]; NCAM shRNA
  neurite outgrowth in NCAM knock down neurons: eliminated in neurons transfected with NCAM shRNA (p < 0.01
[2]; empty vector, versus control
  neurite outgrowth in mock-transfected neurons: increased neurite outgrowth in mock-transfected neurons (p < 0.05)
[3]; dnRET
  neurite outgrowth in dnRET-transfected neurons: significantly increased the level of neurite outgrowth in mock-transfected neurons as well as in neurons transfected with the vector encoding dnRET (p < 0.05
[3]; empty vector, versus control
  neurite outgrowth in mock-transfected neurons: significantly increased the level of neurite outgrowth in mock-transfected neurons

## IGF-1: insulin growth factor-1 (Life Technology), a known anti-apoptotic factor for CGNs [reference compound]
[4]
  neuronal survival (rescue from apoptosis by potassium withdrawal): significantly increased the number of CGNs rescued from the apoptosis

## RSPHDLSLASLLGAG [artefin in monomer form]
[5]
  overall neuritogenic effect: did not demonstrate any significant neurite outgrowth

B1: artefin, ARTN-derived peptide synthesized as a tetramer (dendrimer) on a lysine backbone (peptide)
peptide: RSPHDLSLASLLGAG
modifications: also: tetramer: four monomers coupled to a lysine backbone
notes: amino acids 166-180 of human ARTN (UniProt D3DPX9), heel region; also called artefin-dendrimer; artefin-d; source: synthetic peptide (Schafer-N, Copenhagen; solid-phase Fmoc chemistry)
[6]
  Kd: 2800 nM
[7]
  Kd: 2.9 nM
